{"source": "paper PMC8147998", "about": "“Apigenin and Structurally Related Flavonoids Allosterically Potentiate the Function of Human α7-Nicotinic Acetylcholine Receptors Expressed in SH-EP1 Cells” (Cells, 2021)"}
{"target": "T1, α7 human nicotinic acetylcholine receptor (α7 nACh receptor) (Homo sapiens, UniProt P36544)", "T1 construct": "gene CHRNA7; homomeric receptor stably expressed in SH-EP1 cells", "T1 sequence (P36544 23-502)": "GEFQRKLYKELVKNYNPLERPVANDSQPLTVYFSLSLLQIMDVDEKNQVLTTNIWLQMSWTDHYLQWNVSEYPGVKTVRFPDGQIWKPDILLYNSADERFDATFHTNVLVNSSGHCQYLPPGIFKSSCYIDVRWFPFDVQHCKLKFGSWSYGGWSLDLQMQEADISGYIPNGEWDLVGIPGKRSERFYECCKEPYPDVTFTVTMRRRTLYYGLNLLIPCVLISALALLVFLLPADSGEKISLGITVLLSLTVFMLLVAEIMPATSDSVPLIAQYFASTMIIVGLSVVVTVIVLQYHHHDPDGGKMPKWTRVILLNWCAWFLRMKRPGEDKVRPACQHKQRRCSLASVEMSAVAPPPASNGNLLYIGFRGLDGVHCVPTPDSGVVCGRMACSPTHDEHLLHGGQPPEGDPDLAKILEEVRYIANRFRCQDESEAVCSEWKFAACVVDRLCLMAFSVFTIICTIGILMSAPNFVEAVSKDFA", "experiment": "Fluo-4 Ca2+ transient potentiation in SH-EP1 cells ([…] ACh); no change in […]-α-bungarotoxin binding", "assay_type": "cell-based", "conditions": "SH-EP1, read-out: % potentiation at 10 μM", "units": {"activation at 10 µM": "%"}}
{"compound": "O=c1cc(-c2ccc(O)cc2)oc2cc(O)cc(O)c12", "note": "[apigenin]", "activation at 10 µM": 48}
{"compound": "O=c1c(-c2ccc(O)cc2)coc2cc(O)cc(O)c12", "note": "[genistein]", "activation at 10 µM": 83}
{"compound": "O=c1c(O)c(-c2ccc(O)c(O)c2)oc2c(O)c(O)cc(O)c12", "note": "[gossypetin]", "activation at 10 µM": 65}
{"compound": "O=c1c(O)c(-c2ccc(O)cc2)oc2cc(O)cc(O)c12", "note": "[kaempferol]", "activation at 10 µM": 81}
{"compound": "O=c1cc(-c2ccc(O)c(O)c2)oc2cc(O)cc(O)c12", "note": "[luteolin]", "activation at 10 µM": 72}
{"compound": "O=C(CCc1ccc(O)cc1)c1c(O)cc(O)cc1O", "note": "[phloretin]", "activation at 10 µM": 112}
{"target": "T1, α7 human nicotinic acetylcholine receptor (α7 nACh receptor)", "experiment": "Fluo-4 Ca2+ transient potentiation in SH-EP1 cells ([…] ACh); no change in […]-α-bungarotoxin binding", "assay_type": "cell-based", "conditions": "SH-EP1; read-out: % potentiation at 10 μM", "units": {"activation at 10 µM": "%"}}
{"compound": "O=c1c(O)c(-c2ccc(O)c(O)c2)oc2cc(O)cc(O)c12", "note": "[quercetin]", "activation at 10 µM": 73}
